Values of other authors in patent EP0860164A1, “Cosmetic and dermatological composition for sun protection containing triazine derivates and butylenglycol diesters” (Beiersdorf Aktiengesellschaft, priority 1997, dated 1998).

Conditions: maximum amount of the filter that known solvents (Bekannte Lösungsmittel) can dissolve

- Löslichkeit in Lipiden: ≤ 15 Gew.-%
Structure (SMILES): CCCCC(CC)COC(=O)c1ccc(Nc2nc(Nc3ccc(C(=O)OCC(CC)CCCC)cc3)nc(Nc3ccc(C(=O)OCC(CC)CCCC)cc3)n2)cc1 (stereo not shown) [UVINUL® T 150, 4,4',4''-(1,3,5-Triazin-2,4,6-triyltriimino)-tris-benzoesäure-tris(2-ethylhexylester)]
